# Experimental data from patent publication US12410163B2, “Compounds as GLP-IR agonists” (Terns Pharmaceuticals, Inc., priority 2022, dated 2025).
# What was measured:
# [1] = molecular target: T1, human GLP-1R receptor (Homo sapiens, UniProt P43220); assay: GLP-1R low expression cell assay (cAMP TR-FRET, CHO-K1_hGLP-1Rlow_clone10); assay type: cell-based; details: CHO-K1_hGLP-1Rlow_clone10 cells, percent activation relative to control GLP-1 peptide
# T1 construct: expressed in transfected cells
# T1 sequence (P43220 24-463): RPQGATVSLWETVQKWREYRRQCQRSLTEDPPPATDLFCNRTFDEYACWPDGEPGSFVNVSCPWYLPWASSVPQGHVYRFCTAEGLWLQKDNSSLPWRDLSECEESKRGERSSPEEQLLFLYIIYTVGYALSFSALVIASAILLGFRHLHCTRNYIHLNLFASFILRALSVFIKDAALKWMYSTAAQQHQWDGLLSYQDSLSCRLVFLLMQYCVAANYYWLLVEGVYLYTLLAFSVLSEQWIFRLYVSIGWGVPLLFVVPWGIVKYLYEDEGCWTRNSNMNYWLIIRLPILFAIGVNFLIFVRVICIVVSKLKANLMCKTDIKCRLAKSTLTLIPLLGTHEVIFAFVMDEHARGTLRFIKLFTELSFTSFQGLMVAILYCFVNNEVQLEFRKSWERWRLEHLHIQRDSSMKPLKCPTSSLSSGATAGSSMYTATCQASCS
# Description: Stable cell lines expressing high and low GLP-1R surface expression are generated in CHO-K1 cells transfected (Fugene 6) with a puromycin selectable DNA plasmid encoding human GLP-1R receptor (accession number: NM_002062.5) under control of an EF1A promoter. Transfected cells are seeded into 24-well plates (9,000 cells/well) containing complete medium and incubated in a humidified incubator at 37° C. with 5% carbon dioxide. After overnight incubation, medium is replaced with complete medium supplemented with puromycin (6 μg/mL) and refreshed every 2-3 days to select for stably transfected cells. Individual pools of selected cells are expanded prior to analysis for responsiveness to GLP-1 control peptide using a TR-FRET assay to detect cAMP (LANCE Ultra cAMP Assay, Perkin Elmer). Briefly, cells are collected in Versene solution, plated in 384-well plates (1,000 cells/well) and combined with serially diluted GLP-1R control peptide (10 nL) using an acoustic dispenser (ECHO). Plates are incubated for 30 minutes at 25° C. prior to the addition of EU-cAMP tracer (5 μL) and Ulight-anti-cAMP (5 μL) reagents to each well, followed by 15 minutes incubation at 25° C. TR-FRET signal is detected using an EnVision Multimode Plate Reader (excitation=320 nm; emission=615 and 655 nm). Dose-response curves are used to generate EC50 values as a measure of responsiveness to the GLP-1R control peptide. Selected cell lines are monitored for responsiveness over multiple passages to ensure stability. […] Briefly, GLP-1R expression is analyzed by flow cytometry using a fluorescein-labeled Exendin-4 peptide fluorescent probe (FLEX). Cells are harvested in Versene solution and washed 3-times with PBS+0.5% BSA before incubation with FLEX reagent (10 μM) for 2 hours at room temperature. After incubation, cells are washed 3-times in PBS+0.5% BSA before final resuspension in PBS prior to analysis by flow cytometry to measure FLEX mean fluorescence intensity (MFI) as a measure of GLP-1R expression on the cell surface.
# For compound testing in the CHO-K1_hGLP-1Rlow_clone10 cell lines, cells are seeded in 384-well plates (1,000 cells/well). Test compounds are serially diluted in DMSO (10-point, 3-fold dilution), added to wells using an ECHO dispenser (10 nL/well) and plates are centrifuged for 1 min and agitated for 2 min at room temperature prior to 30-minute incubation at 25° C. After incubation, Eu-cAMP (5 μL) and Ulight-anti-cAMP (5 μL) reagents are added to each well, followed by centrifugation for 1 minute, agitation for 2 minutes at room temperature, and final incubation of the plates at 25° C. for 15 minutes. Plates are read using an EnVision microplate reader (excitation=320 nm; emission=615 and 655 nm). Dose-response curves are generated from duplicate wells based on percent activation calculated relative to a control GLP-1 peptide agonist that was run in parallel. EC50 values are determined by fitting percent activation as a function of compound concentration using the Hill equation (XLfit).
# Stable cell lines expressing high and low GLP-1R surface expression were generated in CHO-K1 cells transfected (Fugene 6) with a puromycin selectable DNA plasmid encoding human GLP-1R receptor (accession number: NM_002062.5) under control of an EF1A promoter. Transfected cells were seeded into 24-well plates (9,000 cells/well) containing complete medium and incubated in a humidified incubator at 37° C. with 5% carbon dioxide. After overnight incubation, medium was replaced with complete medium supplemented with puromycin (6 μg/mL) and refreshed every 2-3 days to select for stably transfected cells. Individual pools of selected cells were expanded prior to analysis for responsiveness to GLP-1 control peptide using a TR-FRET assay to detect cAMP (LANCE Ultra cAMP Assay, Perkin Elmer).
# [2] = Passive permeability and efflux ratio (Caco-2); assay type: in vitro ADME; details: human
# Description: Caco-2 cells (clone C2BBe1) are obtained, e.g., from American Type Culture Collection (Manassas, VA). Cell monolayers are grown to confluence on collagen-coated, microporous membranes in 12-well assay plates. The permeability assay buffer is Hanks' balanced salt solution containing 10 mM HEPES and 15 mM glucose at a pH of 7.4. The buffer in the receiver chamber also contains 1% bovine serum albumin. The dosing solution concentration is 5 μM of test article in the assay buffer. Cell monolayers are dosed on the apical side (A-to-B) or basolateral side (B-to-A) and incubated at 37° C. with 5% CO2 in a humidified incubator. Samples are taken from the donor and receiver chambers at 120 minutes. Each determination is performed in duplicate. The flux of lucifer yellow is also measured post-experimentally for each monolayer to ensure no damage is inflicted to the cell monolayers during the flux period. All samples are assayed by LC-MS/MS using electrospray ionization. The apparent permeability (Papp) and percent recovery were calculated as follows: Papp=(dCr/dt)×Vr/(A×CA) (1) Percent Recovery=100×((Vr×Cr^final)+(Vd×Cd^final))/(Vd×CN) (2), where, dCr/dt is the slope of the cumulative receiver concentration versus time in μM s^−1; Vr is the volume of the receiver compartment in cm^3; Vd is the volume of the donor compartment in cm^3; A is the area of the insert (1.13 cm^2 for 12-well); CA is the average of the nominal dosing concentration and the measured 120-minute donor concentration in μM; CN is the nominal concentration of the dosing solution in μM; Cr^final is the cumulative receiver concentration in μM at the end of the incubation period; Cd^final is the concentration of the donor in μM at the end of the incubation period. Efflux ratio (ER) is defined as Papp (B-to-A)/Papp (A-to-B). Rat Pharmacokinetics
# Caco-2 cells (clone C2BBe1) were obtained from American Type Culture Collection (Manassas, VA). Cell monolayers were grown to confluence on collagen-coated, microporous membranes in 12-well assay plates. Details of the plates and their certification are shown below. The permeability assay buffer was Hanks' balanced salt solution containing 10 mM HEPES and 15 mM glucose at a pH of 7.4. The buffer in the receiver chamber also contained 1% bovine serum albumin. The dosing solution concentration was 5 μM of test article in the assay buffer. Cell monolayers were dosed on the apical side (A-to-B) or basolateral side (B-to-A) and incubated at 37° C. with 5% CO2 in a humidified incubator. Samples were taken from the donor and receiver chambers at 120 minutes. Each determination was performed in duplicate. The flux of lucifer yellow was also measured post-experimentally for each monolayer to ensure no damage was inflicted to the cell monolayers during the flux period. All samples were assayed by LC-MS/MS using electrospray ionization. The apparent permeability (Papp) and percent recovery were calculated as follows: Papp=(dCr/dt)×Vr/(A×CA) (1) Percent Recovery=100×((Vr×Cr^final)+(Vd×Cd^final))/(Vd×CN) (2), where, dCr/dt is the slope of the cumulative receiver concentration versus time in μM s^−1; Vr is the volume of the receiver compartment in cm^3; Vd is the volume of the donor compartment in cm^3; A is the area of the insert (1.13 cm^2 for 12-well); CA is the average of the nominal dosing concentration and the measured 120-minute donor concentration in μM; CN is the nominal concentration of the dosing solution in μM; Cr^final is the cumulative receiver concentration in μM at the end of the incubation period; Cd^final is the concentration of the donor in μM at the end of the incubation period. Efflux ratio (ER) is defined as Papp (B-to-A)/Papp (A-to-B).
# [3] = Rat pharmacokinetics; assay type: in vivo; set-up: AUC: concentration or dose not given beside the values; details: male Sprague-Dawley rats, plasma, route not given; for half-life: read-out: Rat T1/2 (converted)
# Description: Intravenous dosing: Compounds were formulated at 0.5 mg/mL in a solution comprising 5% polyethylene glycol 400 and 95% (12% (w/v) sulfobutyl-β-cyclodextrin in water) (v/v). Formulated compounds were sterile filtered through a 0.22 micron filter before dosing. Compounds were administered to male, 7-11-week-old Sprague-Dawley rats by jugular vein cannula infusion over 30 minutes at a dose of 1 mg/kg. […]
# Sample collection: Blood collections of about 0.2 mL per time point were performed from jugular vein or other suitable site of each animal, into pre-chilled commercial EDTA-K2 tubes and placed on wet ice until centrifugation. Blood samples were processed for plasma by centrifugation at approximately 4° C., 3,200 g for 10 min. Plasma was collected and transferred into pre-labeled 96 well plate or polypropylene tubes, quick frozen over dry ice and kept at −60° C. or lower until LC-MS/MS analysis.
# Data analysis: Plasma concentration versus time data was plotted in graph and analyzed by non-compartmental approaches using the Phoenix WinNonlin 6.3 software program. Related PK parameters were calculated according to dosing route, e.g., CL, Vdss and C0 for intravenous administration, Cmax, Tmax or % F for extravascular administration, and T1/2, AUC(0-t), AUC(0-inf), MRT(0-t), MRT(0-inf) for all routes.
# [4] = Rat pharmacokinetics; assay type: in vivo; details: male Sprague-Dawley rats, plasma, route not stated in table (IV or oral gavage 10 mL/kg of 0.3 or 0.6 mg/mL)
Structure (SMILES),EC50 [1] [nM],"efflux ratio at 120 min, 5 μM ([2]; pH 7.4, Caco-2, efflux ratio = Papp (B-to-A)/Papp (A-to-B), read-out: ER)","Papp A→B at 120 min, 5 μM ([2]; Caco-2, 5 μM, pH 7.4, 120 minutes) [×10⁻⁶ cm/s]",AUC [3] [ng·h/mL],Cmax [4] [ng/mL],half-life [3] [h]
"CC1(c2ccc(C#N)cc2F)Oc2cccc(N3CCN(Cc4nc5ccc(C(=O)O)cc5n4Cc4cncs4)C4CC43)c2O1 (centres unmarked) [Compound 34, 2-((5-(2-(4-Cyano-2-fluorophenyl)-2-methylbenzo[d][1,3]dioxol-4-yl)-2,5-diazabicyclo[4.1.0]heptan-2-yl)methyl)-1-(thiazol-5-ylmethyl)-1H-benzo[d]imidazole-6-carboxylic Acid]",< 5,1.82,19.9,,,
"C[C@@]1(c2ccc(C#N)cc2F)Oc2cccc(N3CCN(Cc4nc5ccc(C(=O)O)cc5n4Cc4cncs4)[C@@H]4C[C@@H]43)c2O1 [Compound 37, 2-((5-(2-(4-Cyano-2-fluorophenyl)-2-methylbenzo[d][1,3]dioxol-4-yl)-2,5-diazabicyclo[4.1.0]heptan-2-yl)methyl)-1-(thiazol-5-ylmethyl)-1H-benzo[d]imidazole-6-carboxylic Acid]",< 5,,,15.8 ± 7.6,20 ± 7.7,
"C[C@]1(c2ccc(C#N)cc2F)Oc2cccc(N3CCN(Cc4nc5ccc(C(=O)O)cc5n4Cc4cncs4)[C@H]4C[C@H]43)c2O1 [Compound 36, 2-((5-(2-(4-Cyano-2-fluorophenyl)-2-methylbenzo[d][1,3]dioxol-4-yl)-2,5-diazabicyclo[4.1.0]heptan-2-yl)methyl)-1-(thiazol-5-ylmethyl)-1H-benzo[d]imidazole-6-carboxylic Acid]",5 to 50,,,20.7 ± 12.6,19.3 ± 2.7,1.8
"C[C@]1(c2ccc(C#N)cc2F)Oc2cccc(N3CCN(Cc4nc5ccc(C(=O)O)cc5n4Cc4cncs4)[C@@H]4C[C@@H]43)c2O1 [Compound 38, 2-((5-(2-(4-Cyano-2-fluorophenyl)-2-methylbenzo[d][1,3]dioxol-4-yl)-2,5-diazabicyclo[4.1.0]heptan-2-yl)methyl)-1-(thiazol-5-ylmethyl)-1H-benzo[d]imidazole-6-carboxylic Acid]",> 100,,,109 ± 21.5,58.3 ± 9.74,1.6
